Source: ChEMBL document CHEMBL2413076, “Synthesis and biological evaluation of ursolic acid-triazolyl derivatives as potential anti-cancer agents” (Eur J Med Chem, 2013)

Columns and labels:
A549 [1] = experiment: Growth inhibition of human A549 cells assessed as dead cells at 20 uM after 48 hrs by sulforhodamine-B assay relative to control; assay type: functional; details: A549, 48 h, read-out: GI
HCT-116 [2] = experiment: Growth inhibition of human HCT116 cells assessed as dead cells at 20 uM after 48 hrs by sulforhodamine-B assay relative to control; assay type: functional; details: HCT-116, 48 h, read-out: GI
THP-1 [3] = experiment: Growth inhibition of human THP1 cells assessed as dead cells at 20 uM after 48 hrs by sulforhodamine-B assay relative to control; assay type: functional; details: THP-1, 48 h, read-out: GI
HCT-116 [4] = experiment: Growth inhibition of human HCT116 cells assessed as dead cells at 50 uM after 48 hrs by sulforhodamine-B assay relative to control; assay type: functional; details: HCT-116, 48 h, read-out: GI
MCF7 [5] = experiment: Growth inhibition of human MCF7 cells assessed as dead cells at 10 uM after 48 hrs by sulforhodamine-B assay relative to control; assay type: functional; details: MCF7, 48 h, read-out: GI
[6] = Growth inhibition of human FR2 cells assessed as dead cells at 50 uM after 48 hrs by sulforhodamine-B assay relative to control; assay type: cell-based; details: read-out: GI
[7] = Growth inhibition of human FR2 cells after 48 hrs by sulforhodamine-B assay; assay type: cell-based; details: FR2, 48 h
A549 [8] = experiment: Growth inhibition of human A549 cells assessed as dead cells at 10 uM after 48 hrs by sulforhodamine-B assay relative to control; assay type: functional; details: A549, 48 h, read-out: GI
MCF7 [9] = experiment: Growth inhibition of human MCF7 cells assessed as dead cells at 50 uM after 48 hrs by sulforhodamine-B assay relative to control; assay type: functional; details: MCF7, 48 h, read-out: GI
THP-1 [10] = experiment: Growth inhibition of human THP1 cells after 48 hrs by sulforhodamine-B assay; assay type: functional, cell-based; details: THP-1, 48 h
A549 [11] = experiment: Growth inhibition of human A549 cells assessed as dead cells at 50 uM after 48 hrs by sulforhodamine-B assay relative to control; assay type: functional; details: A549, 48 h, read-out: GI
A549 [12] = experiment: Growth inhibition of human A549 cells after 48 hrs by sulforhodamine-B assay; assay type: functional, cell-based; details: A549, 48 h
THP-1 [13] = experiment: Growth inhibition of human THP1 cells assessed as dead cells at 50 uM after 48 hrs by sulforhodamine-B assay relative to control; assay type: functional; details: THP-1, 48 h, read-out: GI
THP-1 [14] = experiment: Growth inhibition of human THP1 cells assessed as dead cells at 10 uM after 48 hrs by sulforhodamine-B assay relative to control; assay type: functional; details: THP-1, 48 h, read-out: GI
MCF7 [15] = experiment: Growth inhibition of human MCF7 cells after 48 hrs by sulforhodamine-B assay; assay type: functional, cell-based; details: MCF7, 48 h
HCT-116 [16] = experiment: Growth inhibition of human HCT116 cells after 48 hrs by sulforhodamine-B assay; assay type: functional, cell-based; details: HCT-116, 48 h
[17] = Growth inhibition of human FR2 cells assessed as dead cells at 10 uM after 48 hrs by sulforhodamine-B assay relative to control; assay type: cell-based; details: read-out: GI
HCT-116 [18] = experiment: Growth inhibition of human HCT116 cells assessed as dead cells at 10 uM after 48 hrs by sulforhodamine-B assay relative to control; assay type: functional; details: HCT-116, 48 h, read-out: GI
A549 [19] = experiment: Growth inhibition of human A549 cells assessed as dead cells at 1 uM after 48 hrs by sulforhodamine-B assay relative to control; assay type: functional; details: A549, 48 h, read-out: GI
MCF7 [20] = experiment: Growth inhibition of human MCF7 cells assessed as dead cells at 1 uM after 48 hrs by sulforhodamine-B assay relative to control; assay type: functional; details: MCF7, 48 h, read-out: GI

SMILES | inhibition of growth at 20 µM (A549 [1]) [%] | inhibition of growth at 20 µM (HCT-116 [2]) [%] | inhibition of growth at 20 µM (THP-1 [3]) [%] | inhibition of growth at 50 µM (HCT-116 [4]) [%] | inhibition of growth at 10 µM (MCF7 [5]) [%] | inhibition at 48 h, 50 µM [6] [%] | IC50 [7] [µM] | inhibition of growth at 10 µM (A549 [8]) [%] | inhibition of growth at 50 µM (MCF7 [9]) [%] | IC50 (THP-1 [10]) [µM] | inhibition of growth at 50 µM (A549 [11]) [%] | IC50 (A549 [12]) [µM] | inhibition of growth at 50 µM (THP-1 [13]) [%] | inhibition of growth at 10 µM (THP-1 [14]) [%] | IC50 (MCF7 [15]) [µM] | IC50 (HCT-116 [16]) [µM] | inhibition at 48 h, 10 µM [17] [%] | inhibition of growth at 10 µM (HCT-116 [18]) [%] | inhibition of growth at 1 µM (A549 [19]) [%] | inhibition of growth at 1 µM (MCF7 [20]) [%]
O=c1[nH]cc(F)c(=O)[nH]1 [FLUOROURACIL] | 86 | 76 | 96 |  |  |  |  |  |  |  |  |  |  |  |  |  |  |  |  | 
C[C@H]1[C@H](C)CC[C@]2(C(=O)OCc3cn(-c4ccc(Br)cc4)nn3)CC[C@]3(C)C(=CC[C@@H]4[C@@]5(C)CCC(=O)C(C)(C)[C@@H]5CC[C@]43C)[C@H]12 |  |  |  | 92 | 44 | 93 | 19 | 45 | 78 | 1 | 63 | 18 | 95 | 74 | 15 | 1.7 | 58 | 80 |  | 
C[C@H]1[C@H](C)CC[C@]2(C(=O)OCc3cn(-c4ccccc4I)nn3)CC[C@]3(C)C(=CC[C@@H]4[C@@]5(C)CCC(=O)C(C)(C)[C@@H]5CC[C@]43C)[C@H]12 |  |  |  | 78 | 54 | 56 | 35 | 43 | 76 | 9.4 | 67 | 19 | 79 | 56 | 13 | 15 | 36 | 44 |  | 
Cc1ccc(-n2cc(COC(=O)[C@]34CC[C@@H](C)[C@H](C)[C@H]3C3=CC[C@@H]5[C@@]6(C)CCC(=O)C(C)(C)[C@@H]6CC[C@@]5(C)[C@]3(C)CC4)nn2)cc1C |  |  |  | 99 | 69 | 85 | 10 | 74 | 99 | 0.9 | 93 | 0.5 | 94 | 82 | 5.5 | < 0.1 | 68 | 91 |  | 
C[C@H]1[C@H](C)CC[C@]2(C(=O)O)CC[C@]3(C)C(=CC[C@@H]4[C@@]5(C)CC[C@H](O)C(C)(C)[C@@H]5CC[C@]43C)[C@H]12 [URSOLIC ACID] |  |  |  | 53 | 36 | 66 | 31 | 28 | 57 | 9.1 | 61 | 33 | 84 | 31 | 37 | 42 | 31 | 55 |  | 
C[C@H]1[C@H](C)CC[C@]2(C(=O)OCc3cn(-c4ccccc4[N+](=O)[O-])nn3)CC[C@]3(C)C(=CC[C@@H]4[C@@]5(C)CCC(=O)C(C)(C)[C@@H]5CC[C@]43C)[C@H]12 |  |  |  | 65 | 4 | 12 | > 50 | 3 | 42 | 48 | 39 | > 50 | 54 | 24 | > 50 | 14 | 9 | 45 |  | 
C[C@H]1[C@H](C)CC[C@]2(C(=O)OCc3cn(-c4ccccc4Br)nn3)CC[C@]3(C)C(=CC[C@@H]4[C@@]5(C)CCC(=O)C(C)(C)[C@@H]5CC[C@]43C)[C@H]12 |  |  |  | 99 | 80 | 99 | 69 | 85 | 99 | < 0.1 | 99 | 2.9 | 99 | 92 | < 0.1 | 15 | 2 | 41 |  | 
C[C@H]1[C@H](C)CC[C@]2(C(=O)OCc3cn(-c4ccc(F)cc4F)nn3)CC[C@]3(C)C(=CC[C@@H]4[C@@]5(C)CCC(=O)C(C)(C)[C@@H]5CC[C@]43C)[C@H]12 |  |  |  | 91 | 17 | 78 | 44 | 57 | 73 | 1.1 | 64 | 6.4 | 86 | 82 | 30 | 0.47 | 2 | 69 |  | 
COc1ccccc1-n1cc(COC(=O)[C@]23CC[C@@H](C)[C@H](C)[C@H]2C2=CC[C@@H]4[C@@]5(C)CCC(=O)C(C)(C)[C@@H]5CC[C@@]4(C)[C@]2(C)CC3)nn1 |  |  |  | 94 | 87 | 28 | > 50 | 79 | 91 | < 0.1 | 94 | < 0.1 | 93 | 82 | < 0.1 | 0.3 | 5 | 77 |  | 
C#CCOC(=O)[C@]12CC[C@@H](C)[C@H](C)[C@H]1C1=CC[C@@H]3[C@@]4(C)CCC(=O)C(C)(C)[C@@H]4CC[C@@]3(C)[C@]1(C)CC2 |  |  |  | 96 | 22 | 86 | 24 | 50 | 42 | 13 | 78 | 15 | 88 | 42 | 56 | 2.3 | 33 | 74 |  | 
CO[C@@]12[C@H](COC(N)=O)C3=C(C(=O)C(C)=C(N)C3=O)N1C[C@@H]1N[C@@H]12 [MITOMYCIN] |  |  |  |  |  |  |  |  |  |  |  |  |  |  |  |  |  |  | 70 | 82
C[C@H]1[C@H](C)CC[C@]2(C(=O)OCc3cn(-c4ccccc4Cl)nn3)CC[C@]3(C)C(=CC[C@@H]4[C@@]5(C)CCC(=O)C(C)(C)[C@@H]5CC[C@]43C)[C@H]12 |  |  |  | 93 | 81 | 35 | > 50 | 77 | 95 | < 0.1 | 91 | 0.15 | 96 | 80 | < 0.1 | 9.1 | 9 | 54 |  | 
C[C@H]1[C@H](C)CC[C@]2(C(=O)OCc3cn(-c4ccccc4)nn3)CC[C@]3(C)C(=CC[C@@H]4[C@@]5(C)CCC(=O)C(C)(C)[C@@H]5CC[C@]43C)[C@H]12 |  |  |  | 78 | 28 | 45 | 82 | 43 | 51 | 11 | 64 | 24 | 83 | 54 | 39 | 14 | 12 | 44 |  | 
